Literature values in patent publication US20160021884A1, “STABLE SOLUTIONS OF 1,2-BENZISOTHIAZOLIN-3-ONE” (TITAN CHEMICALS LIMITED, priority 2014, published 2016).

Settings: 5° C., 4 weeks

O=c1[n-]sc2ccccc12.[Li+] [lithium salt of BIT]
Stability of purely aqueous solution: stable at 5 °C for 4 weeks
